This is an account of results in patent publication US11168345B2, “Methods of identifying a polypeptide target for degradation by a modulator of CRBN” (THE BROAD INSTITUTE, INC., priority 2015, dated 2021).

For assay [1], the target named is T1, Aiolos C2H2 zinc finger 2 (AA146-168) (Homo sapiens, UniProt Q96SW2+Q9UKT9).
T1 construct: attaching zinc finger 2 (amino acids 146-168) to GFP via a flexible linker; expressed in transfected cells; host or cells: HEK293T
Put plainly: Aiolos zinc finger 2 (amino acids 146-168) GFP fusion degradation, flow cytometry. The assay is classed as cell-based. In general terms: Flow cytometry measures light scatter and fluorescence of single cells or particles in a stream.

For assay [2], the system named is RNF166. As to conditions: for degradation of RNF166 in protein reporter vector (normalized EGFP:mCherry ratio): HEK293T cells, lentiviral transduction, 1 μM, cereblon and zinc finger-dependent; for degradation of zinc-finger-containing region of RNF166 fused to GFP: flow cytometry. The text has this:
(§1) Bars corresponding to treatment groups A-D are consistent amongst all genetic background groups. Bar height is the average of three replicates, error bars represent 95% confidence intervals. […] Light gray (asterisk) amino acids designate positions which are components of the C2H2 zinc finger motif and are found across the C2H2 family of zinc fingers. Medium gray (black bar) amino acids are polymorphic sites in C2H2 zinc fingers.

The test system of assay [3] is ZNF692. As to conditions: for degradation of ZNF692 in protein reporter vector (normalized EGFP:mCherry ratio): HEK293T cells, lentiviral transduction, 1 μM, cereblon and zinc finger-dependent; for degradation of zinc-finger-containing region of ZNF692 fused to GFP: flow cytometry.
From the text: as §1

Assay [4] deals with ZFP91. To be noted: for degradation of ZFP91 in protein reporter vector (normalized EGFP:mCherry ratio): HEK293T cells, lentiviral transduction, 1 μM, cereblon and zinc finger-dependent; for degradation of zinc-finger-containing region of ZFP91 fused to GFP: flow cytometry.
From the text: as §1

The target of assay [5] is T2, RNF166 (Homo sapiens, UniProt Q96A37+Q96SW2).
T2 construct: endogenous in cells; host or cells: MM1S, KG1
To be noted: MM1S (multiple myeloma) and KG1 (Acute Myeloid Leukemia) cell lines; datasets of Kronke et al. 2014, 2015; cited from earlier work.

For assay [6], the target named is T3, ZNF692 (Homo sapiens, UniProt Q96SW2+Q9BU19).
T3 construct: endogenous in cells; host or cells: MM1S, KG1
To be noted: MM1S (multiple myeloma) and KG1 (Acute Myeloid Leukemia) cell lines; datasets of Kronke et al. 2014, 2015; cited from earlier work.

Assay [7] deals with T4, ZFP91 (Homo sapiens, UniProt Q96JP5+Q96SW2).
T4 construct: endogenous in cells; host or cells: MM1S, KG1
To be noted: MM1S (multiple myeloma) and KG1 (Acute Myeloid Leukemia) cell lines; datasets of Kronke et al. 2014, 2015; cited from earlier work.

T1 sequence (Q9UKT9 146-168 limits assumed): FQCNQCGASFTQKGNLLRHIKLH
T1 sequence (Q96SW2 whole entry, the tested form may be a part): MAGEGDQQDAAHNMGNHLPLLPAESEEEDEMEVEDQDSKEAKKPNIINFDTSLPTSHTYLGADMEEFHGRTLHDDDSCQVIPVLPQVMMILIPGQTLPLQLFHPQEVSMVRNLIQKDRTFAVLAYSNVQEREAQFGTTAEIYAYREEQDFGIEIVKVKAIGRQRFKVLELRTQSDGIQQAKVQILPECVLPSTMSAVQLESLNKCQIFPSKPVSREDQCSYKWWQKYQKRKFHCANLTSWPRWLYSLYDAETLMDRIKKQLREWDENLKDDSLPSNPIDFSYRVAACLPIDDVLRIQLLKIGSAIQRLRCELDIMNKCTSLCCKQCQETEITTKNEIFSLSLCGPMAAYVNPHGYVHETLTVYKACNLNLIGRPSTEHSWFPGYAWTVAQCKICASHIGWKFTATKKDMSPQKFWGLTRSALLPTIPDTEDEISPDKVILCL
T1 sequence (Q16531 whole entry partner, the tested form may be a part): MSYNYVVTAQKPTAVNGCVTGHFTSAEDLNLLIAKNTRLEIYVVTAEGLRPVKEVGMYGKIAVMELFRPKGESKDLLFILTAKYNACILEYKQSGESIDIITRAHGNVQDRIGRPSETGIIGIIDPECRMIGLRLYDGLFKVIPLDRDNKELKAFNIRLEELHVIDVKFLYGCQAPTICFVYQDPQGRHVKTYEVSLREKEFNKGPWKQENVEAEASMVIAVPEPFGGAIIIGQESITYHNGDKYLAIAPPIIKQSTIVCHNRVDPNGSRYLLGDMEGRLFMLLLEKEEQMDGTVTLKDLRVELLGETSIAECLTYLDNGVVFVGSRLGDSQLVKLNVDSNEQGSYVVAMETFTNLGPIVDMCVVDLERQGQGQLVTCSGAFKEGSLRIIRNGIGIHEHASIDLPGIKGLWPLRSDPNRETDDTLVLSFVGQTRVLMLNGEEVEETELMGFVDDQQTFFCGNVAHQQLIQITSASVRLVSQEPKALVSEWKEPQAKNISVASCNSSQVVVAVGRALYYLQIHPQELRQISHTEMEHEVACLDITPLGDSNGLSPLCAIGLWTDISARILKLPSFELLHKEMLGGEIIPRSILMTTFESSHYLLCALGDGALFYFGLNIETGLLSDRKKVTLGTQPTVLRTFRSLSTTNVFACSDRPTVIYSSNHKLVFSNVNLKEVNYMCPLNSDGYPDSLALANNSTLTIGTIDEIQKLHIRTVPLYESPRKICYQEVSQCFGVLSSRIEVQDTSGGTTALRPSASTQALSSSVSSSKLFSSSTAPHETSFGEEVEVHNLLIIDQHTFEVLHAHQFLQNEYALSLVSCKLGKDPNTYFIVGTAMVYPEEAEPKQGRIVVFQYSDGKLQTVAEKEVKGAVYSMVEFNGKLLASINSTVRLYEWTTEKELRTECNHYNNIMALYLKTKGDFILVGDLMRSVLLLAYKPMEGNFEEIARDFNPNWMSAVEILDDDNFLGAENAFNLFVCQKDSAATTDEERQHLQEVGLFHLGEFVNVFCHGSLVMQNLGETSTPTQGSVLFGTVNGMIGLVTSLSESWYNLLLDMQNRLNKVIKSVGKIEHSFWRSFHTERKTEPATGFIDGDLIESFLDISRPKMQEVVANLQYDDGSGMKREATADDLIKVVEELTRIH
T3 sequence (Q9BU19 whole entry): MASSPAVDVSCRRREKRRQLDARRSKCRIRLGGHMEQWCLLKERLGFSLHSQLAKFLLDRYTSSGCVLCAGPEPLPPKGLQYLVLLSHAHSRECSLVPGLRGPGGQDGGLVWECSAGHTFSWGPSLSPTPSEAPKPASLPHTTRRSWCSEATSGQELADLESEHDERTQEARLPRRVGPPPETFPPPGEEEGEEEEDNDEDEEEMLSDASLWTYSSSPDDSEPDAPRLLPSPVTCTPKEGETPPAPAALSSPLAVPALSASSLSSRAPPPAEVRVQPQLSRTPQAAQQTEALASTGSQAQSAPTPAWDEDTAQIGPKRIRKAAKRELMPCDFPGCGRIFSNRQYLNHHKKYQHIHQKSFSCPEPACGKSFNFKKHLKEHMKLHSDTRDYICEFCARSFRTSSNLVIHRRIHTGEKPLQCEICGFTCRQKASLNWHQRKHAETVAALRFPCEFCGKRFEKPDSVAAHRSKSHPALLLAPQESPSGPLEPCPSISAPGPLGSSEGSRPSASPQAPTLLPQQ
T3 sequence (Q96SW2 whole entry): as the sequence (Q96SW2 whole entry, the tested form may be a part) above
T3 sequence (Q16531 whole entry partner): as the sequence (Q16531 whole entry partner, the tested form may be a part) above
T4 sequence (Q96JP5 2-570 limits assumed): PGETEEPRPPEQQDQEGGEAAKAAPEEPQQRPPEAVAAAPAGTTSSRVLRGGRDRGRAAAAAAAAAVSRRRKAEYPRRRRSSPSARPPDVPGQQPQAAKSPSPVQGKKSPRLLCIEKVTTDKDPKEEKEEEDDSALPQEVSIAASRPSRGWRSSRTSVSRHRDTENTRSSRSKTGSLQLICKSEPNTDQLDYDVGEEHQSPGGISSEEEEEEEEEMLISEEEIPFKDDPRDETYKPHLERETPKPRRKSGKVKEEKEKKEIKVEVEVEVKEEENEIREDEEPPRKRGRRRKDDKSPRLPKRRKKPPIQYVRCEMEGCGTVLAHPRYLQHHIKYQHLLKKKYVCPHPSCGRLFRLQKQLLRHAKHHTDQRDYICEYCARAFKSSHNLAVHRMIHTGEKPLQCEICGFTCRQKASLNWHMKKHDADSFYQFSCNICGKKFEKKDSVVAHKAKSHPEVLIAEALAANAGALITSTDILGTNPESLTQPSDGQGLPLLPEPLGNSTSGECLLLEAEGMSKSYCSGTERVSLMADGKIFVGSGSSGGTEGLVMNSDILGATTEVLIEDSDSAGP
T4 sequence (Q96SW2 whole entry): as the sequence (Q96SW2 whole entry, the tested form may be a part) above
T4 sequence (Q16531 whole entry partner): as the sequence (Q16531 whole entry partner, the tested form may be a part) above
T2 sequence (Q96A37 whole entry): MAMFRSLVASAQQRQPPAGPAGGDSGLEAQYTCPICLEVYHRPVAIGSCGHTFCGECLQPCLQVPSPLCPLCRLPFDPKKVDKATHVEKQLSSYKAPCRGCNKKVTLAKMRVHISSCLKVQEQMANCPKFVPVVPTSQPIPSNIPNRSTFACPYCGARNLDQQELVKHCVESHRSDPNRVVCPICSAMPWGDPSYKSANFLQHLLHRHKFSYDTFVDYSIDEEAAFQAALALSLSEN
T2 sequence (Q96SW2 whole entry): as the sequence (Q96SW2 whole entry, the tested form may be a part) above
T2 sequence (Q16531 whole entry partner): as the sequence (Q16531 whole entry partner, the tested form may be a part) above

On to `Nc1cccc2c1C(=O)N(C1CCC(=O)NC1=O)C2=O` (centres unmarked) [pomalidomide], for which the “second C2H2 zinc finger in Aiolos (amino acids 146-169) inducing targeting by the drug” value in assay [1] was “both necessary and sufficient to induce targeting”. Moreover, in assay [2], the “degradation of RNF166 in protein reporter vector (normalized EGFP:mCherry ratio)” value is reported as “degraded” and the “degradation of zinc-finger-containing region of RNF166 fused to GFP” value was “degraded with varying efficiencies”. In assay [3], the “degradation of ZNF692 in protein reporter vector (normalized EGFP:mCherry ratio)” value is “degraded” and the “degradation of zinc-finger-containing region of ZNF692 fused to GFP” value is recorded as “degraded with varying efficiencies”. In addition, in assay [4], the “degradation of ZFP91 in protein reporter vector (normalized EGFP:mCherry ratio)” value is recorded as “degraded” and the “degradation of zinc-finger-containing region of ZFP91 fused to GFP” value is listed as “degraded with varying efficiencies”.
In the case of `O=C1CCC(N2C(=O)c3ccccc3C2=O)C(=O)N1` (centres unmarked) [thalidomide], the “second C2H2 zinc finger in Aiolos (amino acids 146-169) inducing targeting by the drug” value in assay [1] was “both necessary and sufficient to induce targeting”. For the same compound, in assay [5], the “RNF166 protein abundance in the presence of drug” value is “significant decrease in abundance”. The “ZNF692 protein abundance in the presence of drug” value in assay [6] is “significant decrease in abundance”. In assay [7], the “ZFP91 protein abundance in the presence of drug” value is “significant decrease in abundance”. Besides, in assay [2], the “degradation of RNF166 in protein reporter vector (normalized EGFP:mCherry ratio)” value is recorded as “degraded” and the “degradation of zinc-finger-containing region of RNF166 fused to GFP” value is “degraded with varying efficiencies”. For the same compound, in assay [3], the “degradation of ZNF692 in protein reporter vector (normalized EGFP:mCherry ratio)” value is on record as “degraded” and the “degradation of zinc-finger-containing region of ZNF692 fused to GFP” value is reported as “degraded with varying efficiencies”. In assay [4], the “degradation of ZFP91 in protein reporter vector (normalized EGFP:mCherry ratio)” value was “degraded” and the “degradation of zinc-finger-containing region of ZFP91 fused to GFP” value is recorded as “degraded with varying efficiencies”.
